{"source": "patent US7838542B2", "about": "“Bicyclic compositions and methods for modulating a kinase cascade” (Kinex Pharmaceuticals, LLC, priority 2006, dated 2010)", "key": {"[1]": {"test_system": "SCID mice", "settings": "mouse, in vivo, ip", "procedure": "These compounds were administered to SCID mice by intraperitoneal administration in tween80:EtOH."}, "[2]": {"target": "pp60^c-src (Homo sapiens, UniProt P12931)", "sequence (P12931 whole entry)": "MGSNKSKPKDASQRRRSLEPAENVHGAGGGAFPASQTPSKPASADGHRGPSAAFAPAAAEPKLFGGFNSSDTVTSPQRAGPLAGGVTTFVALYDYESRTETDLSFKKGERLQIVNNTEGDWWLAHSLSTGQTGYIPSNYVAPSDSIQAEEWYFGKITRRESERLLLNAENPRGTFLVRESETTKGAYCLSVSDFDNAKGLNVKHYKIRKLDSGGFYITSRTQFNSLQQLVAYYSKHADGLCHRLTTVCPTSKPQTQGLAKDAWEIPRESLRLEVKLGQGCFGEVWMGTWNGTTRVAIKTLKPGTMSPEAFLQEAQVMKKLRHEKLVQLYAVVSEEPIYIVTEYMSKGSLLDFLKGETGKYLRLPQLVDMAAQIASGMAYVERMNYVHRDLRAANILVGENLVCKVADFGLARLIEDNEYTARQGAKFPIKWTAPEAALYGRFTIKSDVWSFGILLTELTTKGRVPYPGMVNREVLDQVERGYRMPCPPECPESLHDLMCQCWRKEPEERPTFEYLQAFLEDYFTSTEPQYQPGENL", "experiment": "Src inhibition (RR-SRC phosphorylation), Cellular Mimetic assay", "settings": "for mode of inhibition with respect to ATP: IC50 or % inhibition monitored at ATP increased up to 1 mM; for % Inhibition of 2 mM RR-src at Inhibitor Concentration (1 mM): inhibitor 1 mM; for % Inhibition of 2 mM RR-src at Inhibitor Concentration (100 μM): inhibitor 100 μM"}, "[3]": {"target": "T1, PKA (Homo sapiens, UniProt P17612)", "experiment": "PKA inhibition, Cellular Mimetic assay", "type": "biochemical", "settings": "Cellular Mimetic assay conditions", "description": "(§1) The boronic acid inhibitors 21-24 have two Arg's in their sequence also and therefore will bind to the phosphocellulose paper in addition to Kemptamide (although not as consistently or completely due to one less positive charge). Consequently, when analyzed as inhibitors, the amount of phosphorylated Kemptamide produced was not only counted, but also the amount of phosphorylated inhibitor simultaneously produced (e.g. see 26 below). The net result is that distorted IC50 curves are obtained which show net “stimulation” at higher inhibitor concentrations in some cases. […] The underlying substrate behavior of these “inhibitors” makes an accurate measurement of their inhibition potency impossible with the current assay. However, it does appear from the data that homologating the boronic acid functionality out with only CH2 groups (homologations with boronic acid non-peptide Src inhibitors may also be carried out) decreases the binding affinity and ability to function as a substrate."}, "[4]": {"target": "T1, PKA", "experiment": "PKA inhibition, Literature Mimetic assay", "type": "biochemical", "settings": "Literature Mimetic assay conditions", "description": "as §1"}, "[5]": {"target": "T1, PKA", "experiment": "STAIRe method: form of the protein kinase the inhibitor binds best to", "type": "biochemical", "description": "This was a somewhat surprising result since these inhibitors are analogs of the “end product inhibitors” 1 and 12 which must bind simultaneously with MgADP just following phosphate transfer in the generally accepted reaction mechanism for protein kinases."}, "[6]": {"test_system": "LA25 cells (temperature-sensitive pp60^v-Src transformant of NRK)", "experiment": "LA25 cell growth at permissive and non-permissive temperature", "type": "cell-based, rat", "method": "(§2) Active Src inhibitors can be studied in a set of side-by-side cell-based assays using normal rat kidney (NRK) cells and a temperature-sensitive pp60^v-Src transformant of this cell line (LA25). The LA25 transformant engages in anchorage- and serum-independent growth at the “permissive” temperature of 33° C. due to activation of pp60^v-src but not at the “non-permissive” temperature of 40° C. at which pp60^v-src is not activated (Li et al., 1996). The use of this pair of closely related cell lines for testing the Src inhibitors at both the permissive and non-permissive temperatures allows one to determine if a given Src inhibitor is blocking cell growth due to specific blockade of the Src signaling pathway, by a different mechanism or by a general cytotoxic effect.\n(§3) As shown in this graph the growth of the LA25 cells at the permissive temperature of 33° C. is inhibited by ca. 50% at a 25 μM concentration of 43-meta relative to the LA25 cell growth at the non-permissive 40° C. as a control. […] Since the 43-meta solutions were prepared with a low concentration of DMSO for solubilization, a DMSO control was also run at the same concentration."}, "[7]": {"test_system": "normal rat kidney (NRK) cells", "experiment": "NRK non-transformed cell growth", "type": "cell-based", "method": "as §2, §3"}, "[8]": {"test_system": "PC-3", "experiment": "NIH 60-tumor cell panel assay, PC-3", "type": "cell-based", "settings": "read-out: growth inhibition IC50, PC-3", "description": "The initial non-peptide Src inhibitors have also shown very encouraging results in four different series of cell culture assays. 1) In the NIH 60-tumor cell panel assay, broad activity (as one would expect for a Src inhibitor) was seen against the tumor cell lines, including the prostate lines. […] 3) The Src inhibitors were compared to the cancer drugs etoposide, taxol, doxorubicin and cisplatin in ovarian tumors from three different patients and an abdominal carcinoma from another patient. […] 5) Two of the Src inhibitors were also tested for inhibition of ts v-Src stimulated LA25 cell growth. […] 6) Two of the Src inhibitors were also tested for inhibition of normal rat kidney cell growth."}, "[9]": {"test_system": "DU-145", "experiment": "NIH 60-tumor cell panel assay, DU-145", "type": "cell-based", "settings": "read-out: growth inhibition IC50, DU-145"}}, "note": "Entries after “also recorded” stand apart in the source; their conditions may differ. Numbered stars: 1 amine (or outer) side, 2 acyl side, 3 side chain; on linkers, the order of the positions; unused ones are H or OH. Square brackets hold non-standard residues; d marks the D form. Peptide text beside a SMILES is read from it. X2 = O=C([C@H](CNS(=O)(=O)O)N[*:1])[*:2]; X3 = O=C([C@H](CB(O)O)N[*:1])[*:2]"}
{"smiles": "O=C(NCc1cccc(O)c1)c1cc2cc(F)ccc2[nH]1", "note": "[Compound 1a]", "values": [{"measurement": "toxicity in MTD study (weight loss)", "setting": "[1]", "result": "less toxic in mice than compound 2k"}]}
{"smiles": "O=C(NCc1cccc(F)c1)c1cc2cc(F)ccc2[nH]1", "note": "[Compound 1z]", "values": [{"measurement": "melting point", "result": "239 to 241", "unit": "°C"}]}
{"smiles": "O=C(Nc1cccc(O)c1)c1cc2ccc(O)cc2cc1O", "note": "[Compound 3]", "values": [{"measurement": "IC50", "setting": "[2]; Table X", "result": 16, "unit": "µM"}]}
{"smiles": "CC[C@H](C)[C@H](NC(=O)[C@H](CNS(=O)(=O)O)NC(=O)CNC(=O)[C@H](CCCNC(=N)N)NC(=O)[C@H](CCCNC(=N)N)NC(C)=O)C(N)=O", "note": "[Compound 8] (Ac-RRG[X2]I-NH2)", "values": [{"measurement": "times tighter binding than end product phosphate inhibitor 1", "setting": "[3]", "result": 108, "unit": "×"}, {"measurement": "times tighter binding than end product phosphate inhibitor 1", "setting": "[4]", "result": 31, "unit": "×"}, {"measurement": "nucleotide form of the kinase bound best (STAIRe)", "setting": "[5]", "result": "bind best when MgATP (not MgADP or no nucleotide) is also bound"}]}
{"smiles": "CC[C@H](C)[C@H](NC(=O)[C@H](CB(O)O)NC(=O)CNC(=O)[C@H](CCCNC(=N)N)NC(=O)[C@H](CCCNC(=N)N)NC(C)=O)C(N)=O", "note": "[Compound 21] (Ac-RRG[X3]I-NH2)", "values": [{"measurement": "inhibition at 100 µM", "setting": "[2]; read-out: % Inhibition at 100 μM (std. dev.), inhibitor 100 μM, Table IX", "result": 14, "unit": "%"}]}
{"smiles": "OB(O)c1ccc2ccccc2c1", "note": "[Compound 27, 2-naphthalene boronic acid]", "values": [{"measurement": "mode of inhibition with respect to ATP", "setting": "[2]", "result": "not ATP-competitive inhibitors; also recorded: NON-ATP COMPETITIVE"}]}
{"smiles": "O=S(=O)(O)Nc1ccc2ccccc2c1", "note": "[Compound 28]", "values": [{"measurement": "mode of inhibition with respect to ATP", "setting": "[2]", "result": "not ATP-competitive inhibitors; also recorded: NON-ATP COMPETITIVE"}, {"measurement": "IC50", "setting": "[2]; Table IV", "result": 1600, "unit": "µM"}, {"measurement": "Ki", "setting": "[2]; Table IV", "result": 963, "unit": "µM"}, {"measurement": "% Inhibition of 2 mM RR-src at Inhibitor Concentration (1 mM)", "setting": "[2]; Table IV", "result": 31, "unit": "%"}]}
{"smiles": "O=S(=O)(O)c1ccc2ccccc2c1", "note": "[Compound 29]", "values": [{"measurement": "% Inhibition of 2 mM RR-src at Inhibitor Concentration (1 mM)", "setting": "[2]; Table IV", "result": "0 (1 mM) %"}]}
{"smiles": "NS(=O)(=O)c1ccc2ccccc2c1", "note": "[Compound 31]", "values": [{"measurement": "% Inhibition of 2 mM RR-src at Inhibitor Concentration (100 μM)", "setting": "[2]; Table IV", "result": "0 (100 μM) %"}]}
{"smiles": "OB(O)c1cccc2ccccc12", "note": "[Compound 32]", "values": [{"measurement": "% Inhibition of 2 mM RR-src at Inhibitor Concentration (100 μM)", "setting": "[2]; Table IV", "result": "0 (100 μM) %"}]}
{"smiles": "O=P(O)(O)c1cccc2ccccc12", "note": "[Compound 33]", "values": [{"measurement": "% Inhibition of 2 mM RR-src at Inhibitor Concentration (1 mM)", "setting": "[2]; Table IV", "result": "1 (1 mM) %"}]}
{"smiles": "NS(=O)(=O)c1cccc2ccccc12", "note": "[Compound 34]", "values": [{"measurement": "% Inhibition of 2 mM RR-src at Inhibitor Concentration (100 μM)", "setting": "[2]; Table IV", "result": "0 (100 μM) %"}]}
{"smiles": "OB(O)c1cc2ccccc2o1", "note": "[Compound 35]", "values": [{"measurement": "% Inhibition of 2 mM RR-src at Inhibitor Concentration (100 μM)", "setting": "[2]; Table IV", "result": "10 (100 μM) %"}]}
{"smiles": "OB(O)c1cc2ccccc2s1", "note": "[Compound 36]", "values": [{"measurement": "% Inhibition of 2 mM RR-src at Inhibitor Concentration (100 μM)", "setting": "[2]; Table IV", "result": "12 (100 μM) %"}]}
{"smiles": "O=C(Nc1cccc(O)c1)c1cc2ccc(O)cc2cc1O", "note": "[Compound 43-meta]", "values": [{"measurement": "v-Src induced (Src stimulated) LA25 cell growth", "setting": "[6]", "result": "specifically blocked the v-Src induced cell growth"}, {"measurement": "inhibition at 25 µM", "setting": "[6]; Rattus norvegicus, read-out: inhibition of growth of LA25 cells at the permissive temperature of 33° C., 25 μM, relative to LA25 growth at non-permissive 40° C.", "result": "~50", "unit": "%"}, {"measurement": "normal growth of the parent non-transformed cells", "setting": "[7]", "result": "without inhibiting the normal growth of the parent non-transformed cells"}, {"measurement": "cell toxicity", "setting": "[7]; up to 400 μM, NRK cells, LA25 cells at 40° C. and at 33° C.", "result": "lack of cell toxicity"}]}
{"smiles": "O=C(Nc1cccc(O)c1)c1cc2cccc(O)c2cc1O", "note": "[Compound 45]", "values": [{"measurement": "v-Src induced (Src stimulated) LA25 cell growth", "setting": "[6]", "result": "specifically blocked the v-Src induced cell growth"}, {"measurement": "normal growth of the parent non-transformed cells", "setting": "[7]", "result": "without inhibiting the normal growth of the parent non-transformed cells"}]}
{"smiles": "O=C(NCc1cccc(O)c1)c1cc2cc(O)ccc2[nH]1", "note": "[Compound 49-meta]", "values": [{"measurement": "IC50", "setting": "[8]", "result": 39, "unit": "µM"}, {"measurement": "IC50", "setting": "[9]", "result": "> 100", "unit": "µM"}]}
